Assay results taken from DBAASP.
Converted amounts (≈) assume the structure as drawn. “And” between values parts separate entries of the source, which are not always exact repeats. Identical values can stand only once. Values belong to the compound of their own block, whether it stands above or below them.

Assays:
Assay in all cases: ≥ marks a high value that may be exact or a test limit, other limits are often not marked, values filed in µg/mL are converted to µM
[1] = system: Bacillus subtilis KCCM 11495
[2] = system: Escherichia coli KCCM 11569
[3] = system: Bacillus subtilis DSM 402
[4] = system: Escherichia coli DSM 30083
Serratia rubidaea X01 = system: Serratia rubidaea X01
[5] = system: Escherichia coli ATCC 25922
[6] = system: Klebsiella pneumoniae 08040724
[7] = system: Psychrobacter faecalis X29
[8] = system: Staphylococcus carnosus KHS
[9] = system: Bacillus licheniformis X39
[10] = system: Enterococcus faecalis 981
[11] = system: Rhodococcus rhodochrous X15
[12] = system: Staphylococcus aureus ATCC 25923
Trypanosoma cruzi = system: Trypanosoma cruzi
Candida tropicalis = system: Candida tropicalis
[13] = system: Salmonella enterica subsp. enterica serovar Enteritidis
Klebsiella pneumoniae = system: Klebsiella pneumoniae
Staphylococcus aureus = system: Staphylococcus aureus
Rhodotorula mucilaginosa = system: Rhodotorula mucilaginosa
[14] = system: Staphylococcus epidermidis ATCC 12228
Bacillus megaterium Bm11 = system: Bacillus megaterium Bm11
Streptococcus equinus = system: Streptococcus equinus
Escherichia coli ML-35 = system: Escherichia coli ML-35
Candida albicans = system: Candida albicans
[15] = system: Pseudomonas aeruginosa ATCC 27853
[16] = system: Serratia marcescens ATCC 8100
[17] = system: Salmonella enterica subsp. enterica serovar Typhimurium ATCC 14028
Candida parapsilosis = system: Candida parapsilosis
[18] = system: Klebsiella pneumoniae ATCC 13883
[19] = system: Staphylococcus aureus 930918-3
[20] = system: Pseudomonas aeruginosa MR3007
[21] = system: Staphylococcus aureus 1056
Escherichia coli O157:H7 = system: Escherichia coli O157:H7

Structure (SMILES): CC[C@H](C)[C@H](NC(=O)[C@H](C)NC(=O)[C@H](Cc1cnc[nH]1)NC(=O)[C@@H]1CCCN1C(=O)[C@@H](NC(=O)[C@H](CC(C)C)NC(=O)[C@H](CO)NC(=O)[C@H](CC(C)C)NC(=O)[C@@H](N)Cc1ccccc1)[C@@H](C)CC)C(=O)N[C@@H](CC(N)=O)C(=O)N[C@@H](C)C(=O)N[C@H](C(=O)N[C@@H](CO)C(=O)N[C@H](C(=O)N[C@@H](CC(C)C)C(=O)N[C@H](C(=O)N[C@@H](Cc1cnc[nH]1)C(=O)N[C@@H](Cc1cnc[nH]1)C(=O)N[C@@H](CO)C(=O)NCC(N)=O)C(C)C)[C@@H](C)O)C(C)C [FLSLIPHAINAVSTLVHHSG]
- MIC (Trypanosoma cruzi): 14.2 µM (≈ 30 µg/mL)

Structure (SMILES): CC(C)C[C@H](NC(=O)[C@H](CCC(N)=O)NC(=O)[C@H](CCC(=O)O)NC(=O)[C@H](CC(C)C)NC(=O)[C@H](Cc1ccccc1)NC(=O)[C@H](CCC(=O)O)NC(=O)[C@H](CCC(N)=O)NC(=O)[C@H](Cc1ccccc1)NC(=O)[C@H](CO)NC(=O)[C@H](CC(C)C)NC(=O)[C@@H]1CCCN1C(=O)[C@H](Cc1ccccc1)NC(=O)[C@H](Cc1c[nH]c2ccccc12)NC(=O)[C@H](Cc1cnc[nH]1)NC(=O)[C@H](CCCN=C(N)N)NC(=O)[C@H](CCCN=C(N)N)NC(=O)[C@@H](N)CCCCN)C(=O)N[C@@H](CCCN=C(N)N)C(=O)N[C@@H](CCCN=C(N)N)C(=O)N[C@@H](Cc1ccccc1)C(=O)N[C@@H](CCCN=C(N)N)C(=O)N[C@@H](CC(=O)O)C(=O)N[C@@H](CCC(N)=O)C(=O)N[C@@H](CC(C)C)C(=O)N1CCC[C@H]1C(=O)N[C@@H](Cc1ccccc1)C(=O)N1CCC[C@H]1C(=O)O [KRRHWFPLSFQEFLEQLRRFRDQLPFP]
- MIC (Candida tropicalis): 31.9 µM (≈ 114 µg/mL)
- MIC [13]: 31.9 µM (≈ 114 µg/mL)
- MIC (Klebsiella pneumoniae): 31.9 µM (≈ 114 µg/mL)
- MIC [5]: 3.92 µM (≈ 14 µg/mL)
- MIC (Staphylococcus aureus): 31.9 µM (≈ 114 µg/mL)
- MIC (Rhodotorula mucilaginosa): 31.9 µM and 15.9 µM
- MIC [14]: 7.97 µM (≈ 28.5 µg/mL)
- MIC (Bacillus megaterium Bm11): 3.92 µM (≈ 14 µg/mL)
- MIC (Streptococcus equinus): 31.9 µM (≈ 114 µg/mL)
- MIC (Escherichia coli ML-35): 3.92 µM (≈ 14 µg/mL)
- MIC (Candida albicans): > 31.9 µM
- MIC [15]: > 31.9 µM
- MIC [16]: 7.97 µM (≈ 28.5 µg/mL)
- MIC [17]: 31.9 µM (≈ 114 µg/mL)
- MIC (Candida parapsilosis): 31.9 µM (≈ 114 µg/mL)
- MIC [18]: 7.97 µM (≈ 28.5 µg/mL)
- MIC [12]: 15.9 µM (≈ 57 µg/mL)

Structure (SMILES): CC[C@H](C)[C@H](NC(=O)[C@H](CCCCN)NC(=O)[C@H](CCCCN)NC(=O)[C@H](CC(C)C)NC(=O)[C@H](CCCCN)NC(=O)[C@H](CCC(=O)O)NC(=O)[C@H](CCCCN)NC(=O)[C@@H](NC(=O)[C@H](CCCCN)NC(=O)[C@H](CC(N)=O)NC(=O)[C@H](CCCN=C(N)N)NC(=O)[C@H](Cc1ccccc1)NC(=O)[C@H](CCCCN)NC(=O)[C@H](CCCN=C(N)N)NC(=O)[C@H](CC(C)C)NC(=O)[C@H](CCCN=C(N)N)NC(=O)[C@H](CCCCN)NC(=O)[C@H](CCCN=C(N)N)NC(=O)[C@H](CC(C)C)NC(=O)CN)[C@@H](C)CC)C(=O)NCC(=O)O [GLRKRLRKFRNKIKEKLKKIG]
- MIC [19]: 0.69 µM and 0.84 µM
- MIC [20]: 0.27 µM and 0.34 µM

Continued, values first:

- MIC [1]: ≥ 40.3 µM
- MIC [2]: ≥ 40.3 µM
Structure (SMILES): CC(C)C[C@H](NC(=O)CNC(=O)[C@H](Cc1cnc[nH]1)NC(=O)[C@H](Cc1cnc[nH]1)NC(=O)[C@H](CC(C)C)NC(=O)[C@H](CC(C)C)NC(=O)[C@H](C)NC(=O)[C@H](CC(N)=O)NC(=O)[C@H](CC(C)C)NC(=O)[C@@H](N)Cc1c[nH]c2ccccc12)C(=O)N[C@@H](CC(N)=O)C(=O)N[C@@H](CS)C(=O)N[C@@H](C)C(=O)N[C@@H](CCCCN)C(N)=O [WLNALLHHGLNCAK]

- MIC [3]: ≥ 45 µM
- MIC [4]: ≥ 45 µM
Structure (SMILES): CC(=O)N[C@@H](CCCN=C(N)N)C(=O)N[C@@H](Cc1c[nH]c2ccccc12)C(=O)N[C@@H](CCCN=C(N)N)C(=O)N[C@@H](Cc1c[nH]c2ccccc12)C(=O)N[C@@H](CCCN=C(N)N)C(=O)N[C@@H](Cc1c[nH]c2ccccc12)C(N)=O [RWRWRW]

- MIC (Serratia rubidaea X01): 1.2 µM (≈ 4.71 µg/mL)
- MIC [5]: 75 µM (≈ 295 µg/mL)
- MIC [6]: ≥ 150 µM
- MIC [7]: 4.5 µM (≈ 17.7 µg/mL)
- MIC [8]: 1.2 µM (≈ 4.71 µg/mL)
- MIC [9]: 9 µM (≈ 35.3 µg/mL)
- MIC [10]: 19 µM (≈ 74.6 µg/mL)
- MIC [11]: 1.2 µM (≈ 4.71 µg/mL)
- MIC [12]: 9 µM (≈ 35.3 µg/mL)
Structure (SMILES): CC[C@H](C)[C@H](NC(=O)[C@H](CO)NC(=O)[C@H](Cc1ccccc1)NC(=O)[C@H](CC(C)C)NC(=O)[C@@H](N)CO)C(=O)N[C@@H](Cc1ccccc1)C(=O)N[C@@H](CCCCN)C(=O)N[C@H](C(=O)N[C@@H](C)C(=O)N[C@@H](C)C(=O)N[C@@H](CCCCN)C(=O)N[C@@H](Cc1ccccc1)C(=O)N[C@H](C(=O)NCC(=O)N[C@@H](CCCCN)C(=O)N[C@@H](CC(N)=O)C(=O)N[C@@H](CC(C)C)C(=O)N[C@@H](CC(C)C)C(=O)N[C@@H](CCCCN)C(=O)N[C@@H](CCC(N)=O)C(=O)N[C@@H](C)C(=O)NCC(=O)N[C@@H](CCCCN)C(=O)N[C@@H](C)C(=O)NCC(=O)N[C@@H](CC(C)C)C(=O)N[C@@H](CCC(=O)O)C(=O)N[C@H](C(=O)N[C@@H](CC(C)C)C(=O)N[C@@H](C)C(=O)N[C@H]1CSSC[C@@H](C(=O)O)NC(=O)[C@H](CCC(=O)O)NC(=O)[C@H](CC(N)=O)NC(=O)[C@H](CCCCN)NC(=O)[C@H](C)NC(=O)[C@H](CCCCN)NC1=O)[C@@H](C)O)C(C)C)[C@@H](C)O [SLFSIFKTAAKFVGKNLLKQAGKAGLETLACKAKNEC]

- MIC [21]: 2.41 µM (≈ 11.5 µg/mL)
- MIC (Escherichia coli O157:H7): 2.53 µM (≈ 12 µg/mL)
Structure (SMILES): CC[C@H](C)[C@@H]1NC(=O)[C@H](CCCN=C(N)N)NC(=O)[C@H](CC(C)C)NC(=O)CNC(=O)[C@@H]2CSSC[C@@H]3NC(=O)[C@H](CC(C)C)NC(=O)CNC(=O)[C@H](CC(C)C)NC(=O)[C@H](Cc4ccccc4)NC(=O)[C@H](CCCN=C(N)N)NC(=O)[C@H](CO)NC(=O)[C@@H]4CCCN4C(=O)[C@H](Cc4ccccc4)NC(=O)[C@H](CC(N)=O)NC(=O)[C@H](CSSC[C@@H](C(=O)N[C@@H](CO)C(=O)N[C@@H](CCCN=C(N)N)C(=O)N[C@H](C(=O)N[C@@H](Cc4c[nH]c5ccccc45)C(=O)N[C@H](C(=O)O)C(C)C)C(C)C)NC(=O)[C@H](CSSC[C@H](NC(=O)[C@H](CCC(N)=O)NC(=O)[C@H](C)NC(=O)[C@H](CCC(=O)O)NC(=O)[C@H](CC(N)=O)NC(=O)[C@@H](NC(=O)[C@@H]4CCCN4C(=O)[C@@H](N)CC(C)C)C(C)C)C(=O)N[C@@H](CCCN=C(N)N)C(=O)N[C@@H](CCC(N)=O)C(=O)N[C@@H](C(C)C)C(=O)NCC(=O)NCC(=O)N[C@@H](Cc4ccc(O)cc4)C(=O)N2)NC(=O)[C@@H]2CCCN2C(=O)[C@H](Cc2cnc[nH]2)NC(=O)[C@H](CC(N)=O)NC(=O)[C@H](CCCN=C(N)N)NC(=O)[C@H]([C@@H](C)O)NC3=O)NC1=O [LPVNEAQCRQVGGYCGLRICNFPSRFLGLCTRNHPCCSRVWV]
